{
  "source": "patent US20200077655A1",
  "about": "“Use of an Acyclic Picolinamide Compound as a Fungicide for Control of Phytopathogenic Fungi in Orchard, Vineyard and Plantation Crops” (Dow AgroSciences LLC, priority 2017, published 2020)",
  "format_in_all_cases": "in vivo",
  "key": {"[1]": {"system": "Podosphaera clandestina (PODOCL)", "experiment": "Field assessment of powdery mildew in cherry", "settings": "cherry leaves, 14 DAA5", "description": "A fungicidal treatment containing Compound I, applied in an SC formulation (MSO built-in) and tank mixed with an adjuvant (Agnique BP-420, 50% w/w at 0.2% v/v or Adsee C80W 80%), was sprayed on cherry trees (PRNAV, Sentennial variety) at growth stage (mid petal fall, flowers fading, petals falling; BBCH 67-85) at rates of 60, 120, 150, and 180 g ai/ha. The experimental plots were run with natural infestation. The treatment was part of an experimental trial designed as a randomized complete block (RCB) with four replications and a plot of approximately 4×6 m. Compound I was applied at water volume of 1000 L/ha, using an Airblast sprayer.\nDisease severity (percentage of visual diseased foliage (leaf) on whole plot) and disease incidence were assessed 14 days after application 5 (14 DAA5). The disease infection was recorded. Disease was evaluated as percent of leaves with disease (incidence), percent diseased leaf area (severity, a disease index calculated (percent (%) incidence×percent (%) severity) and then percent (%) control was calculated using Abbotts from the disease index values. Results are given in Table 12."}, "Botrytis (BOTRSP)": {"system": "Botrytis (BOTRSP)", "experiment": "Field assessment of jacket rot in almond", "settings": "MSO, almond nut infection", "description": "A fungicidal treatment containing Compound I, applied in an SC formulation (MSO-built in) was sprayed on almond trees (Prunus spp.) at bloom, petal fall and ca. 3 and 5 weeks after petal fall at rates of 60, 120, 150, and 180 g ai/ha. The experimental plots were conducted with a natural infestation of Botrytis. The treatments were part of an experimental trial designed as a randomized complete block (RCB) with three replications and a plot of approximately 18×18 ft. Compound I was applied at water volume of 100 gal/acre, using an Airblast sprayer. Nut infection (number of visual diseased nuts per total nuts counted per tree on whole plot) was assessed and recorded 17 days after application 4 (17 DAA4). Relative percent control was calculated as percent of the untreated control using Abbotts."}, "[2]": {"system": "Stigmina carpophila (STIGCA)", "experiment": "Field assessment of two trials for shot hole in almond (AUDPC)", "settings": "almond leaf incidence", "description": "A fungicidal treatment containing Compound I, applied in an SC formulation (MSO built-in) and tank mixed with an adjuvant (Agnique BP-420, 50% w/w at 0.2% v/v or Adsee C80W 80%), was sprayed on almond trees (PRNDU, Winters or Carmel varieties) at growth stage BBCH71 and 72 at rates of 60, 120, 150, and 180 g ai/ha in two trials. The experimental plots were run with natural infestation. The treatments were part of experimental trials designed as a randomized complete block (RCB) with three replications and a plot of approximately 14×20 ft, both trials. Compound I was applied at water volume of 100 gal/acre, using a Mistblower sprayer (Orifice nozzle 0.125 setting), both trials.\nPercent Leaf incidence (calculated from the number of visual diseased leaves per 30 (Winters) or 50 (Carmel) leaves per tree on whole plot) was assessed three or four times during the trial. Area under the disease progress curve (AUDPC) was calculated for each plot using the sets of recorded leaf incidence data. Relative percent control was calculated from the AUDPC as percent of the untreated control using Abbotts."}, "[3]": {"system": "Botrytis cinerea (BOTRCI)", "experiment": "Field assessment of gray mold on grapevine", "description": "On grapevine: A fungicidal treatment containing Compound I, applied in a 5% EC formulation and tank mixed with an adjuvant (Trycol, 50% w/w at 0.2% v/v), was sprayed only on the bunch portion of grape plants (VITVI, Pinot grey variety) at rates of 50, 150 and 200 grams of active ingredient per hectare (g ai/ha). The trial was based on two applications 28 days apart in open field conditions with disease inoculation 3 days after the last application (plant growth stage B83). The treatment was part of an experimental trial designed as a randomized complete block with four replications and a plot of approximately 2.5×7.0 m. Formulations of compound I were applied at water volume of 500 L/ha (bunches only), using a backpack plot sprayer ([…], Solo 433; Airatom nozzle). Disease severity was recorded as a percentage of incidence and infection of damaged bunches on a random sample of 100 bunches per plot. Gray mold infection was assessed three times, the first at 22 days after the last application (22DAAB), the second and third at 28DAAB and 36DAAB. Area under the disease progress curve (AUDPC) was calculated for each plot using the sets of recorded severity data. Relative AUDPC (% control based on AUDPC) was calculated as percent of the nontreated control."}, "[4]": {"settings": "60 g ai/ha, Agnique BP420, 240 mL/ha"}, "[5]": {"settings": "120 g ai/ha, Agnique BP420, 480 mL/ha"}, "[6]": {"settings": "150 g ai/ha, Agnique BP420, 600 mL/ha"}, "[7]": {"settings": "180 g ai/ha, Agnique BP420, 720 mL/ha"}},
  "data": [
    {"smiles": "COc1ccnc(C(=O)N[C@@H](C)C(=O)O[C@@H](C)C(c2ccc(F)cc2)c2ccc(F)cc2)c1OC(C)=O", "note": "[Compound I, (S)-1,1-bis(4-fluorophenyl)propan-2-yl (3-acetoxy-4-methoxypicolinoyl)-L-alaninate]", "values": [
      {"measurement": "Calc Percent Control of PODOCL", "setting": "[1]; [4]", "result": 64.6, "unit": "%"},
      {"measurement": "Calc Percent Control of PODOCL", "setting": "[1]; 60 g ai/ha, MSO, 120 g ai/ha", "result": 63.3, "unit": "%"},
      {"measurement": "Calc Percent Control of PODOCL", "setting": "[1]; 120 g ai/ha, Adsee C80W 80%, 300 g ai/ha", "result": 44.4, "unit": "%"},
      {"measurement": "Calc Percent Control of PODOCL", "setting": "[1]; [5]", "result": 46.9, "unit": "%"},
      {"measurement": "Calc Percent Control of PODOCL", "setting": "[1]; 120 g ai/ha, MSO, 240 g ai/ha", "result": 37.9, "unit": "%"},
      {"measurement": "Calc Percent Control of PODOCL", "setting": "[1]; [6]", "result": 44.4, "unit": "%"},
      {"measurement": "Calc Percent Control of PODOCL", "setting": "[1]; 150 g ai/ha, MSO, 300 g ai/ha", "result": 91.7, "unit": "%"},
      {"measurement": "Calc Percent Control of PODOCL", "setting": "[1]; [7]", "result": 48.7, "unit": "%"},
      {"measurement": "Calc Percent Control of PODOCL", "setting": "[1]; 180 g ai/ha, MSO, 360 g ai/ha", "result": 89.1, "unit": "%"},
      {"measurement": "Calc Percent Control of BOTRSP 17 DAA4", "setting": "Botrytis (BOTRSP); 60 g ai/ha, 120 g ai/ha", "result": 37.9, "unit": "%"},
      {"measurement": "Calc Percent Control of BOTRSP 17 DAA4", "setting": "Botrytis (BOTRSP); 120 g ai/ha, 240 g ai/ha", "result": 40.0, "unit": "%"},
      {"measurement": "Calc Percent Control of BOTRSP 17 DAA4", "setting": "Botrytis (BOTRSP); 150 g ai/ha, 300 g ai/ha", "result": 51.6, "unit": "%"},
      {"measurement": "Calc Percent Control of BOTRSP 17 DAA4", "setting": "Botrytis (BOTRSP); 180 g ai/ha, 360 g ai/ha", "result": 53.5, "unit": "%"},
      {"measurement": "Calculated Percent Control (AUDPC) of STIGCA", "setting": "[2]; [4]", "result": 45.2, "unit": "%"},
      {"measurement": "Calculated Percent Control (AUDPC) of STIGCA", "setting": "[2]; 60 g ai/ha, MSO, 120 g ai/ha", "result": 47.9, "unit": "%"},
      {"measurement": "Calculated Percent Control (AUDPC) of STIGCA", "setting": "[2]; 120 g ai/ha, Adsee C80W, 300 g ai/ha", "result": 44.6, "unit": "%"},
      {"measurement": "Calculated Percent Control (AUDPC) of STIGCA", "setting": "[2]; [5]", "result": 49, "unit": "%"},
      {"measurement": "Calculated Percent Control (AUDPC) of STIGCA", "setting": "[2]; 120 g ai/ha, MSO, 240 g ai/ha", "result": 48.3, "unit": "%"},
      {"measurement": "Calculated Percent Control (AUDPC) of STIGCA", "setting": "[2]; [6]", "result": 41.1, "unit": "%"},
      {"measurement": "Calculated Percent Control (AUDPC) of STIGCA", "setting": "[2]; 150 g ai/ha, MSO, 300 g ai/ha", "result": 45.1, "unit": "%"},
      {"measurement": "Calculated Percent Control (AUDPC) of STIGCA", "setting": "[2]; [7]", "result": 30.1, "unit": "%"},
      {"measurement": "Calculated Percent Control (AUDPC) of STIGCA", "setting": "[2]; 180 g ai/ha, MSO, 360 g ai/ha", "result": 49.0, "unit": "%"},
      {"measurement": "Percent control (AUDPC) from fruit infection assessments", "setting": "[3]; 50 g ai/ha", "result": "B (51-75)"},
      {"measurement": "Percent control (AUDPC) from fruit infection assessments", "setting": "[3]; 150 g ai/ha", "result": "A (76-100)"},
      {"measurement": "Percent control (AUDPC) from fruit infection assessments", "setting": "[3]; 200 g ai/ha", "result": "A (76-100)"}
    ]}
  ]
}
